# Data taken from patent publication US20220332699A1 (SAGE THERAPEUTICS, INC., priority 2019, published 2022).
# Target: CYP46A1 (Homo sapiens, UniProt Q9Y6A2)
# Assay: CYP46A1 Enzyme Assay 2 (testosterone substrate, HPLC-MS)
# Assay type: biochemical
# Conditions: read-out: IC50 (CYP46A1 inhibitory activity)
# Method: Briefly, in a 384-well plate format, 10 μL per well of an enzyme-substrate mixture of CYP46A1 (5 μM final concentration) and Testosterone ([…] final concentration) were dispensed to wells containing test compound. For CYP46A1 titration, 5 μL per well of serially diluted CYP46A1 (concentrations including 10 μM, 5 μM, and 2.5 μM) and Testosterone (concentration of […]) were dispensed. For Testosterone titration, 5 μL per well of serially diluted Testosterone (concentrations including 10 μM, 5 μM, and 2.5 μM) and CYP46A1 (concentration of 5 μM) were dispensed. The plates were centrifuged at 1000 rpm for 30 seconds, and then sealed and incubated at 37° C. for 30 minutes. The plate was removed from the incubator, and then 10 μL per well of NADPH-generating system were dispensed to initiate the reaction. The plates were incubated at 37° C. for 15 minutes, added with 80 μL per well of 100% methanol consisting 1 ng/ml diclofenac as internal standard, and then transferred for HPLC-MS.
# Sequence of CYP46A1 (Q9Y6A2 whole entry): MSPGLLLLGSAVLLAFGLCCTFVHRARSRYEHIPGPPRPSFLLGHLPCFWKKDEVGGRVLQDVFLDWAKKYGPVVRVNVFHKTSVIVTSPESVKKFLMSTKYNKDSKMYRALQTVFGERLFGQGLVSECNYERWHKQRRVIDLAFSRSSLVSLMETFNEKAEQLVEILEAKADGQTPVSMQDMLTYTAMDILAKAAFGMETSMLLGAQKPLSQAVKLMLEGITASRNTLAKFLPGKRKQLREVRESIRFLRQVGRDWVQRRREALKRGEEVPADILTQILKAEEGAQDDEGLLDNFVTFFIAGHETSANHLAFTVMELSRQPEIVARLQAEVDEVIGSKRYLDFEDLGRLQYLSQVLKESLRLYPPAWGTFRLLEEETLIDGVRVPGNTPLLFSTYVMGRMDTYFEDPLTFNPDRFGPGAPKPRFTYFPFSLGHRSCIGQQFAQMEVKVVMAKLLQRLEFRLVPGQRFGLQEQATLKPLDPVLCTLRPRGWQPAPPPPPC
row,SMILES,IC50 [nM]
1,"N#CC1(Cc2ccc(C3CC3)cn2)CCN(C(=O)c2cccnc2-c2ccncn2)CC1 [Compound A226, 4-((5-cyclopropylpyridin-2-yl)methyl)-1-(2-(pyrimidin-4-yl)nicotinoyl)piperidine-4-carbonitrile]",100 to 1000
2,"Cc1ncc(CC2(C#N)CCN(C(=O)c3cccnc3-c3ccncn3)CC2)cn1 [Compound A203, 4-((2-methylpyrimidin-5-yl)methyl)-1-(2-(pyrimidin-4-yl)nicotinoyl)piperidine-4-carbonitrile]",> 1000
3,"C[C@H](c1ccc(F)cc1F)C1(C#N)CCN(C(=O)c2cccnc2-c2ccncn2)CC1 [Compound A241, (S)-4-(1-(2,4-difluorophenyl)ethyl)-1-(2-(pyrimidin-4-yl)nicotinoyl)piperidine-4-carbonitrile]",< 100
4,"N#CC1(CC2CC(F)(F)C2)CCN(C(=O)c2cccnc2-c2ccncn2)CC1 [Compound A54, 4-((3,3-difluorocyclobutyl)methyl)-1-(2-(pyrimidin-4-yl)nicotinoyl)piperidine-4-carbonitrile]",100 to 1000
5,"N#CC1(CC2CCOCC2)CCN(C(=O)c2cccnc2-c2ccncn2)CC1 [Compound A48, 1-(2-(pyrimidin-4-yl)nicotinoyl)-4-((tetrahydro-2H-pyran-4-yl)methyl)piperidine-4-carbonitrile]",100 to 1000
6,"N#CC1(Cc2cccc(C(F)(F)F)c2)CCN(C(=O)c2cccnc2-c2ccncc2)CC1 [Compound A279, 1-([2,4′-bipyridine]-3-carbonyl)-4-(3-(trifluoromethyl)benzyl)piperidine-4-carbonitrile]",< 100
7,"N#CC1(Cc2ccc(Cl)cc2)CCN(C(=O)c2cccnc2-c2ccncn2)CC1 [Compound A37, 4-(4-chlorobenzyl)-1-(2-(pyrimidin-4-yl)nicotinoyl)piperidine-4-carbonitrile]",< 100
8,"CS(=O)(=O)c1ccc(CC2(C#N)CCN(C(=O)c3cccnc3-c3ccncn3)CC2)cc1 [Compound A204, 4-(4-(methylsulfonyl)benzyl)-1-(2-(pyrimidin-4-yl)nicotinoyl)piperidine-4-carbonitrile]",100 to 1000

# Further lines, results first:
row,IC50 [nM],SMILES
1,< 100,"N#CC1(Cc2ccc(Cl)cc2F)CCN(C(=O)c2cccnc2-c2ccncn2)CC1 [Compound A205, 4-(4-chloro-2-fluorobenzyl)-1-(2-(pyrimidin-4-yl)nicotinoyl)piperidine-4-carbonitrile]"
2,< 100,"N#CC1(Cc2ccc(Cl)cc2F)CCN(C(=O)c2cccnc2-c2ccncc2)CC1 [Compound A11, 1-{[2,4′-bipyridine]-3-carbonyl}-4-[(4-chloro-2-fluorophenyl)methyl]piperidine-4-carbonitrile]"
3,< 100,"N#CC1(Cc2cc(F)ccc2F)CCN(C(=O)c2cccnc2-c2ccncc2)CC1 [Compound A282, 1-([2,4′-bipyridine]-3-carbonyl)-4-(2,5-difluorobenzyl)piperidine-4-carbonitrile]"
4,< 100,"N#CC1(Cc2ccccc2C(F)(F)F)CCN(C(=O)c2cccnc2-c2ccncn2)CC1 [Compound A262, 1-(2-(pyrimidin-4-yl)nicotinoyl)-4-(2-(trifluoromethyl)benzyl)piperidine-4-carbonitrile]"
5,< 100,"N#CC1(Cc2ccc(F)cc2)CCN(C(=O)c2c(F)cccc2-c2ccncn2)CC1 [Compound A221, 1-(2-fluoro-6-(pyrimidin-4-yl)benzoyl)-4-(4-fluorobenzyl)piperidine-4-carbonitrile]"
6,< 100,"C[C@H](c1c(F)cccc1F)C1(C#N)CCN(C(=O)c2cccnc2-c2ccncc2)CC1 [Compound A245, (S)-1-([2,4′-bipyridine]-3-carbonyl)-4-(1-(2,6-difluorophenyl)ethyl)piperidine-4-carbonitrile]"
7,< 100,"N#CC1(Cc2cc(F)ccc2F)CCN(C(=O)c2cccnc2-c2ccncn2)CC1 [Compound A261, 4-(2,5-difluorobenzyl)-1-(2-(pyrimidin-4-yl)nicotinoyl)piperidine-4-carbonitrile]"
